Assay [1] deals with HeLa cervical adenocarcinoma. The assay can be described thus: Cell Proliferation Inhibition Assay (14C-thymidine incorporation), HeLa. The format is cell-based. The settings on record: Homo sapiens. From the text:
(§1) The ability of a test compound to inhibit unregulated cell proliferation may be determined by measuring incorporation of ^14C-labelled thymidine into newly synthesized DNA within cell lines derived from carcinomas originating from several tissues. Accordingly, the anti-proliferative effect of a compound on cells with a variety of phenotypes may be determined.
(§2) Carcinoma cell lines include those such as HeLa cervical adenocarcinoma (American Type Culture Collection (ATCC), Virginia, Cat. #CCL-2), A375 malignant melanoma (ATCC CRL-1619), SK-OV-3 ovarian adenocarcinoma (ATCC HTB-77), HCT-116 colon carcinoma (CCL-247), PC-3 prostate adenocarcinoma (ATCC CRL-1435), and MDA-MB-231 (Xenogen Corp.)
(§3) The carcinoma cells are trypsinized and counted. The cells (3000-8000 count) are added to each well of a 96-well CytoStar tissue culture treated scintillating microplate (Amersham #RPNQ0160) in complete medium (100 μL) and the plate is then incubated in complete medium for 24 hrs at 37° C. in an inert atmosphere containing 5% CO2. Test compound (1 μL) in 100% DMSO is added to the plate test-wells with DMSO only added to control-wells. The plate is incubated in complete medium for a second 24 hr period at 37° C. in an atmosphere containing 5% CO2.
(§4) An aliquot of a solution of Methyl ^14C-thymidine (56 mC/mmol) (NEN #NEC568 or Amersham #CFA532) and complete medium (20 uL to provide 0.2 μCi/well) is then added to each well and the plate is incubated for a third 24 hr period at 37° C. in an atmosphere containing 5% CO2. The plate contents are then discarded, the plate is washed twice with PBS (200 μL) and then PBS (200 μL) is added to each well. The plate is sealed and the degree of methyl ^14C-thymidine incorporation is quantified on a Packard Top Count.

A further assay deals with T1, CDK2 (Homo sapiens, UniProt P24941).
T1 construct: purchased Upstate Biotech, Lake Placid, N.Y
The experiment in a line: CDK-2 screening assay. The format is biochemical. As for the experimental part: (§5) 70 μL of the kinase reaction mixture was dispensed into the well of a streptavidin coated FlashPlate™ (Cat. #SMP103, NEN, Boston, Mass.).
(§6) Test compound stock in 100% DMSO (1 μL) was added to the wells resulting in a final concentration of 1% DMSO in the reaction with a 100 μL final reaction volume. Each enzyme was diluted in 50 mM Tris-HCl pH=8.0, 0.1% BSA and 30 μL was added to each well to initiate the reaction. The reaction was incubated for one hour at 30° C. At the end of the 1 hr incubation, the reaction was terminated by aspirating the mixture from the plate and washing the wells twice with PBS containing 100 mM EDTA. The biotinylated peptide substrate became immobilized on the Flashplate and the incorporation of ^33P-γ-ATP was measured by reading the plate on a scintillation counter. Inhibition of the enzymatic activity was measured by observing a reduced amount of ^33P-γ-ATP incorporated into the immobilized peptide.
The CDK2 enzyme in complex with cyclin A is commercially available (Upstate Biotech, Lake Placid, N.Y.).
(§7) A maximum and minimum signal for the assay was determined on each plate. The percent inhibition of a test compound was calculated according to the formula: […]
(§8) The term “ND” means “not determined.”

The subject of the next assay is HCT-116 colon carcinoma. The experiment in a line: Cell Proliferation Inhibition Assay (14C-thymidine incorporation), HCT-116. The format is cell-based. To be noted: Homo sapiens.
Source text: as §1, §2, §3, §4
(In general: Dividing cells build labelled thymidine or BrdU into new DNA.)

In the next assay the test system is A375 malignant melanoma. The experiment in a line: Cell Proliferation Inhibition Assay (14C-thymidine incorporation), A375. The format is cell-based. The settings on record: Homo sapiens, A-375.
Source text: as §1, §2, §3, §4

A further assay addresses VEGFR2 (Rattus norvegicus, UniProt O08775). The assay can be described thus: VEGFR2 screening assay. The format is biochemical. As for the experimental part: A kinase reaction mixture was prepared containing 50 mM Tris-HCl pH=8, 10 mM MgCl2, 0.1 mM […], 1 mM DTT, 10 μM ATP, 0.025 μM biotinylated histone-H1 peptide substrate and 0.2 μCuries per well ^33P-γ-ATP (2000-3000 Ci/mmol). 70 μL of the kinase reaction mixture was dispensed into the well of a streptavidin coated FlashPlate™ (Cat. #SMP103, NEN, Boston, Mass.).
as §6
The VEGF-R2 enzyme is a fusion protein containing a polyhistidine tag at the N terminus followed by amino acids 786 to 1343 of the rat VEGF-R2 kinase domain (Accession number U93306). The assay used 150 ng of the N-terminal biotinylated peptide biotin-[…]-amide SEQ ID NO: 2) (VEGF-R2) per well.
as §7
For a series of test concentrations, the IC50 was derived by graphing percent inhibition against the log of the concentrations tested for a given compound with results shown in Table 2. For those compounds without an IC50, the inhibition values in percent are shown at a test concentration of 2 μM. The term “ND” means “not determined.”

The target in a further assay is T2, EGFR (Homo sapiens, UniProt P00533).
T2 construct: intracellular portion of EGFR started at nucleotide 2189 (corresponding to amino acid 667) and ended at the termination codon; made in house; host or cells: Sf9 insect cells (baculovirus)
The assay can be described thus: EGFR Kinase Assay. The settings on record: for inhibition at 2 µM: test concentration of 2 μM. The format is biochemical. From the text: The EGFR kinase used was a fusion of Glutathione-S-Transferase (GST) and a PCR amplified intracellular portion of EGFR (NM_005228). The intracellular portion of EGFR started at nucleotide 2189 (corresponding to amino acid 667) and ended at the termination codon. The portion was PCR amplified with primers that added the lambda attB sequences to each end, recombined into an entry vector, then into a GST destination vector (as described in Gateway Technologies Manual by Invitrogen Corporation, Carlsbad, Calif.).
The destination vector was recombined in the DH10BAC strain of bacteria to produce a bacmid. The bacmid was transfected into Sf9 cells and the supernatant containing the baculovirus was collected. The GSTEGFR protein was purified using large cultures of Sf9 cells infected with stock virus. After an appropriate period of time, the cells were collected and lysed. The GSTEGFR was then purified from the lysate on Glutathione-Sepharose columns (as described by Amersham Biosciences, Buckinghamshire, United Kingdom).
The EGFR substrate was prepared by biotinylating polyGluTyr (128 mg) (Sigma, St. Louis, Mo.) in a 1×PBS buffer incubated together with a 12-fold molar excess of Sulfo-NHS-LC-Biotin on ice for at least 2 hrs. The free biotin was separated from the biotinylated polyGluTyr on a gel filtration column.
A mixture of a 10× kinase buffer (500 mM Tris at pH 8.0, 100 mM Magnesium Chloride and 1 mM Sodium Vanadate), DTT (1 mM final from 500 mM stock), ATP (5 μM final from 10 mM stock), biotinylated polyGluTyr (10 μg/μL stock), γ-^33P ATP (10 μCi/μL stock) and water was added to each well (90 μL/well) of a Streptavidin Flashplate (Perkin Elmer, Wellesley, Mass.).
Test compound in 100% DMSO (2 μL) was added to the appropriate wells. Diluted GSTEGFR (1:300 dilution in 50 mM Tris at pH 8.0 and 0.1% bovine serum albumin) (10 μL) was added to the wells to initiate the reactions.
The plates were incubated at 30° C. for 1 hr with shaking. The reacted contents were removed and the plates were sequentially washed three times with a 1×PBS stop buffer (300 μL without Magnesium and Calcium) and 100 mM EDTA. After the final wash, the same stop buffer (200 μL) was added to the wells. The plates were then sealed and read on the TopCount scintillation counter.
Test compounds were assayed in triplicate at 16 concentrations at half-log dilutions starting at 200 uM. A maximum and minimum signal for the assay was determined on each plate. The percent inhibition of a test compound was calculated according to the formula
For a series of test concentrations, the IC50 was derived by graphing percent inhibition against the log of the concentrations tested for a given compound. The percent inhibition results are shown in Table 1 at a test concentration of 2 μM. For those compounds with an IC50, the IC50 value is shown in parentheses.

The target in a further assay is T3, CDK1 (Homo sapiens, UniProt P06493).
T3 construct: purchased New England Biolabs, Beverly, Mass; 6020; host or cells: insect cells
The assay can be described thus: CDK-1 screening assay. The format is biochemical. As for the experimental part:
as §5, §6, §7, §8

A value given as a limit tells only on which side of the number the result lay.

The term IC50 denotes the midpoint of a concentration-inhibition curve. By inhibition is commonly meant the relative decrease from the control value, in per cent.

T2 sequence (P00533 669-1210 limits assumed): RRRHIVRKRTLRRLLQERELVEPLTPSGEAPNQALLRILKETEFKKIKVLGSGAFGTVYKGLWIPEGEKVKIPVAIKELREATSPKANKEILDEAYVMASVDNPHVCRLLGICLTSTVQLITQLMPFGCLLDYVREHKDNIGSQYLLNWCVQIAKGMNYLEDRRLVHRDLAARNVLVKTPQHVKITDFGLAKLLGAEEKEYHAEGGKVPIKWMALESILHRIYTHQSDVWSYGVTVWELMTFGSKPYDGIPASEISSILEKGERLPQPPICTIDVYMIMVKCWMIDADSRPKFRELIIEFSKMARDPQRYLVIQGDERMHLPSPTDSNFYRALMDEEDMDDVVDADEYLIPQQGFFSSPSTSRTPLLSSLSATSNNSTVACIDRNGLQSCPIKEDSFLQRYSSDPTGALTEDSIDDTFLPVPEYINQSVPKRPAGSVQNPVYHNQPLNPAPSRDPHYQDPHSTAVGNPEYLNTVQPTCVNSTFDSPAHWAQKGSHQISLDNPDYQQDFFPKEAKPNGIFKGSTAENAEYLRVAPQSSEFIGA
Chain of VEGFR2 (O08775 786-1343): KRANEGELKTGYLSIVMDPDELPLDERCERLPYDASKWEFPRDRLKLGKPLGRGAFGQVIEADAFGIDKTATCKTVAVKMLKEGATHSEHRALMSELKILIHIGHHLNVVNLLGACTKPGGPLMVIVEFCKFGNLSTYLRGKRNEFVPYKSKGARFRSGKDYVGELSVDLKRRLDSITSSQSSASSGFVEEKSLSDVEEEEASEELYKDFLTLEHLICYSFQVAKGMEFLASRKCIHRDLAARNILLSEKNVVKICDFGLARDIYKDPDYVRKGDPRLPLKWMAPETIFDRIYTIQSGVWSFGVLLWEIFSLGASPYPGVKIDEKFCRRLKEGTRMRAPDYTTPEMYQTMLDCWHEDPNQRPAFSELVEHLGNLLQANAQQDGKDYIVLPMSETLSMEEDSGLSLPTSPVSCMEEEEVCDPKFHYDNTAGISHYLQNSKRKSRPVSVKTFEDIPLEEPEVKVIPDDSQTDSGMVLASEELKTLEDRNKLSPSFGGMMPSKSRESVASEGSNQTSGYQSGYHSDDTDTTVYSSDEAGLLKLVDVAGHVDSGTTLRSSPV
T3 sequence (P06493 whole entry): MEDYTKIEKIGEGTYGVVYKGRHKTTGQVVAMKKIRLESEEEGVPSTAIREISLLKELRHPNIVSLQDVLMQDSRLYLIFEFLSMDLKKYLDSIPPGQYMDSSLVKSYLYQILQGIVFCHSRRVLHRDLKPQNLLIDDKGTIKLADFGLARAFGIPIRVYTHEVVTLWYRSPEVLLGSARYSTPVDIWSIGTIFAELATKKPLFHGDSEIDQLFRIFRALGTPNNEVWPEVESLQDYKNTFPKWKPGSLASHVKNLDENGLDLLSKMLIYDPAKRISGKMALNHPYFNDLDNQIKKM
T3 sequence (P14635 whole entry partner): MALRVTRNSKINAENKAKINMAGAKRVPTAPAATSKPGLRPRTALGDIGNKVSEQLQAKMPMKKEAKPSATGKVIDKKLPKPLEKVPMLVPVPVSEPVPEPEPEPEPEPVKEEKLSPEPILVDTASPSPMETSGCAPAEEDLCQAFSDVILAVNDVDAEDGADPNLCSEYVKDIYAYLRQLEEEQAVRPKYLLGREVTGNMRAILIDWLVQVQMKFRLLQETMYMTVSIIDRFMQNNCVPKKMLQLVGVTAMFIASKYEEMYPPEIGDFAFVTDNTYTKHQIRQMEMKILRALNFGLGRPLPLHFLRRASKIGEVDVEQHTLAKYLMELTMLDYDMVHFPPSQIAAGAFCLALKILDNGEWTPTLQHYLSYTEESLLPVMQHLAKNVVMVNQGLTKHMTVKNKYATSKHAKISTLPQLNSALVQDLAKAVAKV

`O=S(=O)(NCCO)c1ccc(Nc2nc(Nc3ccc(S(=O)(=O)NCCO)cc3)c3cn[nH]c3n2)cc1` [Cpd 3, N^4,N^6-bis-{4-[(2-hydroxy-ethyl)-amino-sulfonyl]-phenyl}-1H-pyrazolo[3,4-d]pyrimidine-4,6-diamine]: the concentration for half-maximal inhibition (IC50) turned out to be 10 µM in assay [1]; 0.018 µM against CDK2; 100 µM with HCT-116 colon carcinoma; 32.6 µM in the assay on A375 malignant melanoma; 0.328 µM against VEGFR2; 0.079 µM at CDK1. Further, at EGFR, the inhibition at 2 µM came to 78%.
As to `NS(=O)(=O)c1ccc(Nc2nc(Nc3ccc(S(N)(=O)=O)cc3)c3cnoc3n2)cc1` [Cpd 5, N^4,N^6-bis-[4-(amino-sulfonyl)-phenyl]-isoxazolo[5,4-d]pyrimidine-4,6-diamine], the IC50 in assay [1] worked out at 70.7 µM; on CDK2, 0.443 µM; with HCT-116 colon carcinoma, 38.2 µM; with A375 malignant melanoma, 27 µM; at VEGFR2, 2.45 µM; on CDK1, 2.53 µM. Besides, the inhibition at 2 µM against EGFR worked out at 39%.
As to `NS(=O)(=O)c1ccc(Nc2nc(Nc3ccccc3)nc3[nH]ncc23)cc1` [Cpd 6, 4-(6-phenylamino-1H-pyrazolo[3,4-d]pyrimidin-4-ylamino)-benzenesulfonamide], the IC50 against CDK2 came out at 1.11 µM; on VEGFR2 it was 4.28 µM; at CDK1 it was 2.34 µM. Further, the inhibition at 2 µM on EGFR was determined as 40%.
In the case of `NS(=O)(=O)c1ccc(Nc2nc(Nc3ccccn3)c3cnoc3n2)cc1` [Cpd 7, 4-[4-(pyridin-2-ylamino)-isoxazolo[5,4-d]pyrimidin-6-ylamino]-benzenesulfonamide], the IC50 in assay [1] was 100 µM; at CDK2, above 10 µM; in the assay on HCT-116 colon carcinoma, 10 µM; with A375 malignant melanoma, 100 µM; on VEGFR2, above 100 µM; at CDK1, above 100 µM. For the same compound, the inhibition at 2 µM at EGFR worked out at 21%.
On to `NS(=O)(=O)c1ccc(Nc2nc(Nc3ccccn3)c3cn[nH]c3n2)cc1` [Cpd 8, 4-[4-(pyridin-2-ylamino)-1H-pyrazolo[3,4-d]pyrimidin-6-ylamino]-benzenesulfonamide], for which the IC50 is 100 µM in assay [1]; 7.62 µM on CDK2; 100 µM in the assay on HCT-116 colon carcinoma; 100 µM with A375 malignant melanoma; 6.98 µM against VEGFR2; 24.7 µM on CDK1. Further, the inhibition at 2 µM at EGFR worked out at 25%.
With `c1cc2[nH]ncc2cc1Nc1nc(Nc2ccc3[nH]ncc3c2)c2cn[nH]c2n1` [Cpd 9, N^4,N^6-bis-(1H-indazol-5-yl)-1H-pyrazolo[3,4-d]pyrimidine-4,6-diamine], the IC50 in assay [1] came out at 100 µM; against CDK2, 0.04 µM; in the assay on HCT-116 colon carcinoma, 100 µM; in the assay with A375 malignant melanoma, 100 µM; against VEGFR2 it was 0.43 µM; against CDK1, 0.145 µM. The inhibition at 2 µM against EGFR turned out to be 47%.
On to `O=S(=O)(NCCO)c1ccc(Nc2nc(Nc3ccc(C(F)(F)F)cc3)c3cn[nH]c3n2)cc1` [Cpd 10, N-(2-hydroxy-ethyl)-4-[4-(4-trifluoromethyl-phenylamino)-1H-pyrazolo[3,4-d]pyrimidin-6-ylamino]-benzenesulfonamide], for which the IC50 in assay [1] turned out to be 3.4 µM; on CDK2, 0.377 µM; with HCT-116 colon carcinoma it was 10 µM; in the assay on A375 malignant melanoma it was 1 µM; against VEGFR2, 3.49 µM; at CDK1, 1.52 µM. In addition, the inhibition at 2 µM against EGFR was 31%.
As to `NS(=O)(=O)c1ccc(Nc2nc(Nc3ccc4[nH]ncc4c3)nc3[nH]ncc23)cc1` [Cpd 12, 4-[6-(1H-indazol-5-ylamino)-1H-pyrazolo[3,4-d]pyrimidin-4-ylamino]-benzenesulfonamide], the concentration for half-maximal inhibition (IC50) turned out to be 36 µM in assay [1]; 0.432 µM at CDK2; 10 µM in the assay on HCT-116 colon carcinoma; 85.2 µM in the assay on A375 malignant melanoma; 0.536 µM against VEGFR2; 0.568 µM against CDK1. Besides, the inhibition at 2 µM against EGFR amounted to 44%.
`c1cc2cc(Nc3nc(Nc4ccc5[nH]ccc5c4)c4cn[nH]c4n3)ccc2[nH]1` [Cpd 13, N^4,N^6-bis-(1H-indol-5-yl)-1H-pyrazolo[3,4-d]pyrimidine-4,6-diamine]: the concentration for half-maximal inhibition (IC50) in assay [1] was 4 µM; against CDK2, 0.494 µM; in the assay on HCT-116 colon carcinoma it was 2.6 µM; in the assay on A375 malignant melanoma, 1.9 µM; against VEGFR2, 3.67 µM; at CDK1, 2.59 µM. Moreover, the inhibition at 2 µM against EGFR was -4%.
For `NS(=O)(=O)c1cccc(Nc2nc(Nc3cccc(S(N)(=O)=O)c3)c3cn[nH]c3n2)c1` [Cpd 22, N^4,N^6-bis-[3-(amino-sulfonyl)-phenyl]-1H-pyrazolo[3,4-d]pyrimidine-4,6-diamine], the half-maximal inhibitory concentration (IC50) in assay [1] was 100 µM; in the assay with HCT-116 colon carcinoma, 100 µM; in the assay with A375 malignant melanoma it was 100 µM; on VEGFR2, 1 µM; on EGFR (read-out: EGFR IC50 (value in parentheses)), 0.2 µM; at CDK1, 0.475 µM. Further, the inhibition at 2 µM against EGFR turned out to be 66.7%.

(Values after patent US8314234B2, “Bicyclic pyrimidine kinase inhibitors” (Janssen Pharmaceutica N.V., priority 2006, dated 2012).)
